From patent publication US11565094B2, “Delivery devices” (THE METHODIST HOSPITAL SYSTEM, priority 2017, dated 2023)

Columns and labels:
[1] = VEGF 0.5 and 5 μg/mL in PLM, subcutaneous device
Description: The encapsulation systems were evaluated in nude mice (Nu/Nu, female, 8-10 week old), after receiving approval by the Institutional Animal Care and Use Committee of Houston Methodist Research Institute. Surface treated and sterilized devices, loaded with platelet-lysate matrix (PLM) enriched with VEGF at two different concentrations (0.5 and 5 μg/mL), were implanted subcutaneously in the mice dorsum (n=12 per group). At 1, 2, and 4 weeks post implantation, 4 mice per group were euthanized and the graft explanted for the histological assessment of vascularization and innervation. The implant and surrounding tissues were harvested and processed for histopathology evaluation of tissue response to the implanted device. CD31 antibody (Abcam, ab28364) and a pan-axonal antibody (Cambridge Bioscience, SMI-312R-100) were used to assess vascularization and innervation, respectively.
In vivo vascularization and innervation of oxygen treated devices after subcutaneous implantation in nude mice was then investigated. […] To stimulate neovascularization and to support the islet viability and function for a period of time after transplantation, devices loaded with biological gels with different VEGF concentrations was used. […] Tissue samples were taken from the side of the device closer to the skin, representing the subcutaneous environment.

[2] = set-up: species or system C57Bl6 mice; conditions: mouse, in vivo
Source text: Utilizing the percutaneous trocar delivery approach, PEEK nano-channel implants loaded with Magnevist were inserted intratumorally into the upper thigh of C57Bl6 mice with induced melanoma. The implants were visualized on T1-weighted images as an area of hypointensity corresponding to the PEEK body and surrounded by a hyperintense halo of contrast agent (FIG. 7B). Implant location could also be identified on T2-weighted images that, in addition, highlighted tumor heterogeneity (FIG. 7A).
An unexpected outcome was the implant's loaded concentration being too high for visualization, as the relaxation time was faster than the scanner could detect. This is further evidenced by the sharp onset of observable enhancement a few mm from the implant's exterior. The narrow band of this observable enhancement, beginning 2-5 mm from the implant's exterior and approximately 1 mm thick, provides evidence of rapid clearance of the contrast agent from the tumor tissue. FIG. 7C serves as an idealized graphical representation of the relationship between the normalized concentration and the visible contrast zone.

distance from implant's exterior where observable enhancement begins [2] | thickness of band of observable enhancement [2] | Molecule | number of vessels stained by CD31 versus VEGF concentration [1]
– | – | vascular endothelial growth factor [VEGF] | positive trend
2-5 mm | approximately 1 mm | CNC[C@H](O)[C@@H](O)[C@H](O)[C@H](O)CO.CNC[C@H](O)[C@@H](O)[C@H](O)[C@H](O)CO.O=C([O-])CN(CCN(CC(=O)[O-])CC(=O)O)CCN(CC(=O)[O-])CC(=O)O.[Gd+3] [Magnevist] | –
